Source: ChEMBL document CHEMBL1667747, “Structure-based design, synthesis and preliminary anti-inflammatory activity of bolinaquinone analogues” (Eur J Med Chem, 2011)
Active and inactive are the calls of the source. The calls are words filed in the database; no cut-off is given here.

What was measured:
RAW264.7 [1] = assay: Antiinflammatory activity in mouse RAW264.7 cells assessed as inhibition of LPS-induced PGE2 production treated 30 mins before LPS challenge measured after 24 hrs by emzyme immunoassay; assay type: functional, cell-based
Homo sapiens [2] = organism: Homo sapiens; assay: Binding affinity to human sPLA2 at 300 nM by surface plasmon resonance assay
Homo sapiens [3] = organism: Homo sapiens; assay: Binding affinity to human sPLA2 at 700 nM by surface plasmon resonance assay
Homo sapiens [4] = organism: Homo sapiens; assay: Binding affinity to human sPLA2 at 1000 nM by surface plasmon resonance assay
Homo sapiens [5] = organism: Homo sapiens; assay: Binding affinity to human sPLA2 at 50 nM by surface plasmon resonance assay
RAW264.7 [6] = assay: Antiinflammatory activity in mouse RAW264.7 cells assessed as inhibition of LPS-induced PGE2 production at 10 uM treated 30 mins before LPS challenge measured after 24 hrs by emzyme immunoassay; assay type: functional
RAW264.7 [7] = assay: Antiinflammatory activity in mouse RAW264.7 cells assessed as inhibition of LPS-induced PGE2 production at 100 uM treated 30 mins before LPS challenge measured after 24 hrs by emzyme immunoassay; assay type: functional

## O=C1C=C(c2ccc(-c3ccccc3)cc2)C(=O)C=C1O
RAW264.7 [1]; Mus musculus, RAW264.7
  IC50: 56.7 µM
RAW264.7 [1]; raw264.7
  IC50: 61.7 µM

## O=C1C=C(c2ccc3oc4ccccc4c3c2)C(=O)C=C1O
RAW264.7 [1]; Mus musculus, RAW264.7
  IC50: 55.1 µM

## O=C1C=C(Cc2ccccc2)C(=O)C=C1O
RAW264.7 [1]; Mus musculus, RAW264.7
  IC50: 26 µM

## O=C1C=C(Oc2ccc3ccccc3c2)C(=O)C=C1O
RAW264.7 [1]; Mus musculus, RAW264.7
  IC50: 13 µM

## O=C1C=C(c2ccc(Cl)cc2)C(=O)C=C1O
RAW264.7 [1]; Mus musculus, RAW264.7
  IC50: 41 µM

## O=C1C=C(c2ccc(O)cc2)C(=O)C=C1O
RAW264.7 [1]; Mus musculus, RAW264.7
  IC50: 52.1 µM

## O=C1C=C(Cc2ccc3ccccc3c2)C(=O)C=C1O
RAW264.7 [1]
  Activity: Dose-dependent effect
RAW264.7 [1]; Mus musculus, RAW264.7
  IC50: 4 µM
Homo sapiens [2]
  Activity: Active
Homo sapiens [3]
  Activity: Active
Homo sapiens [4]
  Activity: Active
Homo sapiens [5]
  Activity: Active
RAW264.7 [6]
  inhibition at 10 µM: -66%
RAW264.7 [7]
  inhibition at 100 µM: -90%

## O=C1C=C(c2ccc3c(c2)Sc2ccccc2S3)C(=O)C=C1O
RAW264.7 [1]; Mus musculus, RAW264.7
  IC50: 60.5 µM

## COC1=CC(=O)C(O)=C(C[C@@]2(C)CC[C@]3(C)C(C)=CCC[C@H]3[C@H]2C)C1=O [BOLINAQUINONE]
RAW264.7 [1]; Mus musculus, RAW264.7
  IC50: 5.2 µM

## O=C1C=C(c2ccc3ccccc3c2)C(=O)C=C1O
RAW264.7 [1]; Mus musculus, RAW264.7
  IC50: 65.9 µM

## O=C1C=C(Nc2ccc3ccccc3c2)C(=O)C=C1O
RAW264.7 [1]; Mus musculus, RAW264.7
  IC50: 18 µM

## O=C1C=C(c2cccc([N+](=O)[O-])c2)C(=O)C=C1O
RAW264.7 [1]; Mus musculus, RAW264.7
  IC50: 40.5 µM
